Source: ChEMBL document CHEMBL4406894, “Design, synthesis and biological evaluation of novel desloratadine derivatives with anti-inflammatory and H1 antagonize activities” (Bioorg Med Chem Lett, 2019)
The source made the active and inactive calls. The rule behind the calls is not given here.

What was measured:
[1] = Toxicity in Sprague-Dawley rat; details: in vivo
[2] = Toxicity in ICR mouse; details: in vivo
[3] = system: Mus musculus; assay: Immunosuppressive activity in BALB/C mouse assessed as inhibition in TNFalpha production by TNFalpha level at 5 mg/kg by ELISA; assay type: functional
[4] = Half life in monkey liver microsomes incubated for 6 hrs by LC/MS analysis; assay type: ADME, Macaca mulatta, Microsome; details: rhesus monkey
[5] = Half life in mouse liver microsomes incubated for 6 hrs by LC/MS analysis; assay type: ADME, Microsome
[6] = Intrinsic clearance in Rat liver microsomes incubated for 6 hrs by LC/MS analysis; assay type: ADME, Microsome; details: read-out: CLH
[7] = Intrinsic clearance in mouse liver microsomes incubated for 6 hrs by LC/MS analysis; assay type: ADME, Microsome; details: read-out: CLH
[8] = Half life in rat liver microsomes incubated for 6 hrs by LC/MS analysis; assay type: ADME, Microsome
[9] = Intrinsic clearance in human liver microsomes incubated for 6 hrs by LC/MS analysis; assay type: ADME, Microsome; details: read-out: CLH
[10] = Half life in human liver microsomes incubated for 6 hrs by LC/MS analysis; assay type: ADME, Microsome
[11] = Intrinsic clearance in dog liver microsomes incubated for 6 hrs by LC/MS analysis; assay type: ADME, Canis lupus familiaris, Microsome; details: read-out: CLH
[12] = Intrinsic clearance in monkey liver microsomes incubated for 6 hrs by LC/MS analysis; assay type: ADME, Macaca mulatta, Microsome; details: rhesus monkey, read-out: CLH
[13] = Half life in dog liver microsomes incubated for 6 hrs by LC/MS analysis; assay type: ADME, Canis lupus familiaris, Microsome
[14] = system: Mus musculus; assay: Anti-inflammatory activity in DNFB-induced mouse ear edema model assessed as inhibition in ear swelling at 5 mg/kg relative to control; assay type: functional
[15] = species on record: Mus musculus; details: BALB/C, at 5 mg/kg
[16] = Half life in Sprague-Dawley rat at 10 mg/kg, po; assay type: ADME, organism-based; details: in vivo
[17] = Oral bioavailability in Sprague-Dawley rat at 10 mg/kg; assay type: ADME, organism-based; details: in vivo
[18] = Half life in Sprague-Dawley rat at 2 mg/kg, iv; assay type: ADME, organism-based; details: in vivo
[19] = Clearance in Sprague-Dawley rat at 2 mg/kg, iv; assay type: ADME, organism-based; details: in vivo
[20] = Half life in ICR mouse at 2.5 mg/kg, iv; assay type: ADME, organism-based; details: in vivo
[21] = Clearance in ICR mouse at 2.5 mg/kg, iv; assay type: ADME, organism-based; details: in vivo

Clc1ccc2c(c1)CCc1cccnc1C2=C1CCNCC1 [DESLORATADINE]
LD50 [1]: 250 mg/kg
LD50 [2]: 250 mg/kg

COc1ccccc1OC[C@H](O)CN1CCC(=C2c3ccc(Cl)cc3CCc3cccnc32)CC1
Activity [3]: 1.21 ng/mL

Cc1ncc2n1-c1ccc(Cl)cc1C(c1ccccc1F)=NC2 [MIDAZOLAM]
half-life [4]: 3.74 min
half-life [5]: 8.06 min
microsomal CLint [6]: 808 µL/min/mg
microsomal CLint [7]: 430 µL/min/mg
half-life [8]: 4.29 min
microsomal CLint [9]: 289 µL/min/mg
half-life [10]: 12 min
microsomal CLint [11]: 1230 µL/min/mg
microsomal CLint [12]: 927 µL/min/mg
half-life [13]: 2.81 min

COc1cccc(OCC(O)CN2CCC(=C3c4ccc(Cl)cc4CCc4cccnc43)CC2)c1 (configuration not stated)
inhibition in vivo at 5 mg/kg [14]: 43.1%
inhibition [15]: Active

OC(COc1ccccc1F)CN1CCC(=C2c3ccc(Cl)cc3CCc3cccnc32)CC1 (configuration not stated)
inhibition in vivo at 5 mg/kg [14]: 26%
inhibition [15]: Active

COc1ccccc1OCCCN1CCC(=C2c3ccc(Cl)cc3CCc3cccnc32)CC1
inhibition in vivo at 5 mg/kg [14]: 59.5%
inhibition [15]: Active

Cc1ccccc1OCC(O)CN1CCC(=C2c3ccc(Cl)cc3CCc3cccnc32)CC1 (configuration not stated)
inhibition in vivo at 5 mg/kg [14]: 59.1%
inhibition [15]: Active

OC(COc1ccccc1)CN1CCC(=C2c3ccc(Cl)cc3CCc3cccnc32)CC1 (configuration not stated)
inhibition in vivo at 5 mg/kg [14]: 59.1%
inhibition [15]: Active

COc1ccccc1OCC(O)CN1CCC(=C2c3ccc(Cl)cc3CCc3cccnc32)CC1 (racemic)
half-life [16]: 84 min
MTD [1]: 750 mg/kg
half-life [5]: 1.47 min
inhibition in vivo at 5 mg/kg [14]: 59.2%
bioavailability [17]: 18%
half-life [18]: 54 min
Activity [3]: 1.14 ng/mL
clearance [19]: 19.6 mL/min/kg
half-life [20]: 28.2 min
microsomal CLint [6]: 359 µL/min/mg
microsomal CLint [7]: 945 µL/min/mg
half-life [8]: 3.87 min
microsomal CLint [9]: 179 µL/min/mg
half-life [10]: 7.74 min
microsomal CLint [11]: 158 µL/min/mg
clearance [21]: 99.5 mL/min/kg
MTD [2]: 750 mg/kg
half-life [13]: 8.76 min

COc1ccccc1OC[C@@H](O)CN1CCC(=C2c3ccc(Cl)cc3CCc3cccnc32)CC1
Activity [3]: 1.18 ng/mL
